Here are results for 1 molecule from patent US20190388428A1, “A Pharmaceutical Composition Comprising An Oxazine Derivative And Its Use In The Treatment Or Prevention Of Alzheimer's Disease” (NOVARTIS AG, priority 2017, published 2019).

A short description of series [1]: Off-target binding or activity (background statement).
A short description of series [2]: Physical properties of the drug substance (solubility, hygroscopicity, wettability). Format: physicochemical.
The nature of series [3]: Chemical stability of crystalline Compound 1 at high temperature/humidity (UPLC purity). In kind it is physicochemical. The settings on record: for Purity/%: crystalline material. The text has this:
After storage at high temperature and/or humidity, bulk crystalline material was sampled and dissolved in acetonitrile:water (80:20) and the purity analysed in a Waters Aquity UPLC using the following conditions: […]

The nature of series [4]: Drug-drug interaction study with strong CYP3A4 inhibitor itraconazole in healthy volunteers. Format: in vivo, human. The following applies: with itraconazole 200 mg q.d. vs Compound 1 alone. An excerpt:
(§1) The DDI study design is outlined in FIG. 10.
(§2) An ANOVA model with fixed effects for treatment and subject was fitted to each log-transformed PK parameter. Results were back transformed to obtain ‘Adjusted geo-mean’, ‘Geo-mean ratio’ and ‘90% Cl’.

Series [5] can be described thus: Drug-drug interaction study with strong CYP3A4 inducer rifampicin in healthy volunteers. In kind it is in vivo, human. The settings on record: with rifampicin 600 mg q.d. vs Compound 1 alone.
Source text: as §1, §2

In the case of `C[C@@]1(c2nc(NC(=O)c3ncc(C(F)(F)F)cc3Cl)ccc2F)CO[C@@](C)(C(F)(F)F)C(N)=N1` [Compound 1, N-(6-((3R,6R)-5-amino-3,6-dimethyl-6-(trifluoromethyl)-3,6-dihydro-2H-1,4-oxazin-3-yl)-5-fluoropyridin-2-yl)-3-chloro-5-(trifluoromethyl)picolinamide], the “off-target binding or activity” value in series [1] is given as “no relevant off-target binding or activity”. In series [2], the “hygroscopicity” value is reported as “non-hygroscopic” and the “wettability” value is on record as “poorly wettable”. Also, the “solubility in water” value in series [2] (water) is “poorly soluble”. In series [3] (50° C./75% RH, 3 weeks), the “Solid State Form” value was “Crystalline” and the Purity/% stood at 96.8%. Also, in series [3] (50° C., 4 weeks), the “Solid State Form” value was “Crystalline” and the Purity/% is on record as 97.3%. For the same molecule, in series [3] (80° C., 3 weeks), the “Solid State Form” value is reported as “Crystalline” and the Purity/% is 97.3%. Besides, in series [3] (RT, 0 (initial)), the “Solid State Form” value is listed as “Crystalline” and the Purity/% was 97.3%. Further, in series [4], the “increase of mean AUC” value is recorded as 2-3 fold and the “increase of mean Cmax” value worked out at 25%. Further, in series [5], the “decrease of mean AUC” value was 5-6 fold and the “decrease of mean Cmax” value is 2.5 fold.
